Experimental data taken from patent publication USRE48097E1, “Cephem compounds, their production and use” (priority 2015, dated 2020).
Values after ≈ are worked out from the molar mass of the structure shown. Like-named read-outs stand apart in the source and are kept apart here.

Key:
[1] = tested on: S. pneumoniae 2406; test: MIC against S. pneumoniae 2406; format: cell-based; details: Table 2, S. pneumoniae 2406, Pen S
Text: (§1) Without limitation, the present cephem compounds alone, or in combination with one or more β-lactamase inhibitors, may provide improved antibacterial efficacy, particularly in antibiotic-resistant bacterial strains. It is believed that the present compounds may be structurally different from known compounds and, as a result, may be more basic in nature. It is an advantage that the present compounds may extend the spectrum of effective bacterial compounds, particularly against previously-resistant bacteria (e.g. ESKAPE organisms), and/or gram negative bacteria, without significant side effects. In a preferred embodiment, the present cephem compound may comprise reference compound ceftazidime, which may be used alone, or in combination with one or more β-lactamase inhibitors, such as NXL-104. As shown, the foregoing composition was tested for minimum inhibitory concentration (MIC, μg/mL) against bacteria listed in Tables 2-3.

[2] = tested on: E. cloacae 551; test: MIC against E. cloacae 551; format: cell-based; details: Table 2, E. cloacae 551, Caz R, IMP S
Text: as §1

[3] = tested on: E. coli 4098; test: MIC against E. coli 4098; format: cell-based; details: Table 2, E. coli 4098, CTX-M-15, TEM-1
Text: as §1

[4] = tested on: E. cloacae 2706; test: MIC against E. cloacae 2706; format: cell-based; details: Table 3, E. cloacae 2706, VIM-1, KPC-3
Procedure: (§2) As shown, the foregoing composition was tested for minimum inhibitory concentration (MIC, μg/mL) against bacteria listed in Tables 2-3.

[5] = tested on: K. pneumoniae 2689; test: MIC against K. pneumoniae 2689; format: cell-based; details: K. pneumoniae 2689, KPC-2
Procedure: as §2

[6] = tested on: C. freundii 580; test: MIC against C. freundii 580; format: cell-based; details: Table 2, C. freundii 580, Caz R, IMP S
Text: as §1

[7] = tested on: E. coli 2671; test: MIC against E. coli 2671; format: cell-based; details: Table 2, E. coli 2671, VIM-19
Text: as §1

[8] = tested on: P. aeruginosa 2573; test: MIC against P. aeruginosa 2573; format: cell-based; details: Table 2, P. aeruginosa 2573, OXA-10 (Class D)
Text: as §1

[9] = tested on: C. freundii 15; test: MIC against C. freundii 15; format: cell-based; details: Table 2, C. freundii 15, Caz R, IMP S
Text: as §1

[10] = tested on: S. pneumoniae ATCC 6301; test: MIC against S. pneumoniae ATCC 6301; format: cell-based; details: Table 2, S. pneumoniae ATCC 6301, Pen S
Text: as §1

[11] = tested on: K. pneumoniae 2712; test: MIC against K. pneumoniae 2712; format: cell-based; details: Table 3, K. pneumoniae 2712, KPC-3, VIM-1
Procedure: as §2

[12] = tested on: S. pneumoniae 2493; test: MIC against S. pneumoniae 2493; format: cell-based; details: Table 2, S. pneumoniae 2493, Pen R
Text: as §1

[13] = tested on: C. freundii 2003; test: MIC against C. freundii 2003; format: cell-based; details: Table 2, C. freundii 2003, Caz R, IMP S
Text: as §1

[14] = tested on: S. pneumoniae 2392; test: MIC against S. pneumoniae 2392; format: cell-based; details: Table 2, S. pneumoniae 2392, Pen R
Text: as §1

[15] = tested on: K. pneumoniae 2697; test: MIC against K. pneumoniae 2697; format: cell-based; details: Table 2, K. pneumoniae 2697, IMP-4
Text: as §1

[16] = tested on: E. cloacae596; test: MIC against E. cloacae596; format: cell-based, E. cloacae; details: Table 2, E. cloacae596, Caz R, IMP S
Text: as §1

[17] = tested on: E. cloacae 2044; test: MIC against E. cloacae 2044; format: cell-based; details: Table 2, E. cloacae 2044, Caz S, IMP S
Text: as §1

[18] = tested on: E. coli 102; test: MIC against E. coli 102; format: cell-based; details: Table 2, E. coli 102, TEM-1
Text: as §1

[19] = tested on: S. pneumoniae 2404; test: MIC against S. pneumoniae 2404; format: cell-based; details: Table 2, S. pneumoniae 2404, Pen S
Text: as §1

[20] = tested on: S. pneumoniae 2492; test: MIC against S. pneumoniae 2492; format: cell-based; details: Table 2, S. pneumoniae 2492, Pen R
Text: as §1

[21] = tested on: M. morganii 2409; test: MIC against M. morganii 2409; format: cell-based; details: Table 2, M. morganii 2409, High level cephase, β-Lactamase producing
Text: as §1

[22] = tested on: C. freundii 579; test: MIC against C. freundii 579; format: cell-based; details: Table 2, C. freundii 579, Caz R, IMP S
Text: as §1

[23] = tested on: S. aureus 3147; test: MIC against S. aureus 3147; format: cell-based; details: Table 2, S. aureus 3147, MSSA
Text: as §1

[24] = tested on: S. pneumoniae 2403; test: MIC against S. pneumoniae 2403; format: cell-based; details: Table 2, S. pneumoniae 2403, Pen S
Text: as §1

[25] = Streptococcus pneumoniae, alone, read-out: MIC
[26] = Enterobacter cloacae, alone, read-out: MIC
[27] = Escherichia coli, alone, read-out: MIC
[28] = Table 2, in combination with NXL-104
[29] = Table 3, in combination with NXL-104
[30] = Citrobacter freundii, alone, read-out: MIC
[31] = Klebsiella pneumoniae, alone, read-out: MIC

CC(C)(O/N=C(\C(=O)N[C@@H]1C(=O)N2C(C(=O)[O-])=C(C[n+]3ccc4n3CCN4Cc3ccc(C(=N)N)cc3)CS[C@H]12)c1csc(N)n1)C(=O)O [Example 2, (6R,7R)-7-{[(2Z)-2-(2-Amino-1,3-thiazol-4-yl)-2-{[(2-carboxypropan-2-yl)oxy]imino}acetyl]amino}-3-{[1-(4-carbamimidoylbenzyl)-2,3-dihydro-1H-imidazo[1,2-b]pyrazol-5-ium-5-yl]methyl}-8-oxo-5-thia-1-azabicyclo[4.2.0]oct-2-ene-2-carboxylate]
MIC [1, 25]: ≤ 0.06 µg/mL | MIC ([1]; in combination with NXL-104): ≤0.06 µg/mL | MIC [2, 26]: 8 µg/mL | MIC ([2]; in combination with NXL-104): 1.00 µg/mL | MIC [3, 27]: 1 µg/mL | MIC ([3]; in combination with NXL-104): 0.25 µg/mL | MIC [4, 26]: > 32 µg/mL | MIC ([4]; in combination with NXL-104): 32 µg/mL | MIC ([5]; Klebsiella pneumoniae, 2689, Table 2, alone, read-out: MIC): 8 µg/mL (≈ 11.3 µM) | MIC ([5]; Klebsiella pneumoniae, 2689, Table 3, alone, read-out: MIC): 32 µg/mL (≈ 45.1 µM) | MIC [5, 28]: 2.00 µg/mL | MIC [5, 29]: 2 µg/mL | MIC [6, 30]: 4 µg/mL | MIC ([6]; in combination with NXL-104): 0.50 µg/mL | MIC [7, 27]: 4 µg/mL | MIC ([7]; in combination with NXL-104): 4.00 µg/mL | MIC ([8]; Pseudomonas aeruginosa, alone, read-out: MIC): 2 µg/mL | MIC ([8]; in combination with NXL-104): 4.00 µg/mL | MIC [9, 30]: 4 µg/mL | MIC ([9]; in combination with NXL-104): 0.50 µg/mL | MIC ([10]; Streptococcus pneumoniae, ATCC6301, alone, read-out: MIC): ≤ 0.06 µg/mL | MIC ([10]; in combination with NXL-104): ≤0.06 µg/mL | MIC [11, 31]: > 32 µg/mL | MIC ([11]; in combination with NXL-104): 4 µg/mL | MIC [12, 25]: 8 µg/mL | MIC ([12]; in combination with NXL-104): 8.00 µg/mL | MIC [13, 30]: 2 µg/mL | MIC ([13]; in combination with NXL-104): 0.50 µg/mL | MIC [14, 25]: 8 µg/mL | MIC ([14]; in combination with NXL-104): 8.00 µg/mL | MIC [15, 31]: 4 µg/mL | MIC ([15]; in combination with NXL-104): 1.00 µg/mL | MIC [16, 26]: 0.5 µg/mL | MIC ([16]; in combination with NXL-104): 0.25 µg/mL | MIC [17, 26]: 0.25 µg/mL | MIC ([17]; in combination with NXL-104): 0.12 µg/mL | MIC [18, 27]: ≤ 0.06 µg/mL | MIC ([18]; in combination with NXL-104): ≤0.06 µg/mL | MIC [19, 25]: 0.25 µg/mL | MIC ([19]; in combination with NXL-104): 0.25 µg/mL | MIC [20, 25]: 8 µg/mL | MIC ([20]; in combination with NXL-104): 8.00 µg/mL | MIC ([21]; Morganella morganii, alone, read-out: MIC): 8 µg/mL | MIC ([21]; in combination with NXL-104): 1.00 µg/mL | MIC [22, 30]: 2 µg/mL | MIC ([22]; in combination with NXL-104): 0.50 µg/mL | MIC ([23]; Staphylococcus aureus, alone, read-out: MIC): 2 µg/mL | MIC ([23]; in combination with NXL-104): 2.00 µg/mL | MIC [24, 25]: ≤ 0.06 µg/mL | MIC ([24]; in combination with NXL-104): ≤0.06 µg/mL

CC(C)(O/N=C(\C(=O)N[C@@H]1C(=O)N2C(C(=O)[O-])=C(C[n+]3ccccc3)CS[C@H]12)c1csc(N)n1)C(=O)O [CAZ, ceftazidime, reference compound]
MIC ([1]; alone): 0.12 µg/mL | MIC ([1]; in combination with NXL-104): 0.12 µg/mL | MIC ([2]; alone): 16.00 µg/mL | MIC ([2]; in combination with NXL-104): 4.00 µg/mL | MIC ([3]; alone): 2.00 µg/mL | MIC ([3]; in combination with NXL-104): 0.50 µg/mL | MIC ([4]; alone): >32 µg/mL | MIC ([4]; in combination with NXL-104): 32 µg/mL | MIC ([5]; Table 2, alone): 32.00 µg/mL (≈ 58.5 µM) | MIC [5, 28]: 4.00 µg/mL | MIC ([5]; Table 3, alone): >32 µg/mL | MIC [5, 29]: 4 µg/mL | MIC ([6]; alone): 8.00 µg/mL | MIC ([6]; in combination with NXL-104): 2.00 µg/mL | MIC ([7]; alone): 32.00 µg/mL | MIC ([7]; in combination with NXL-104): 32.00 µg/mL | MIC ([8]; alone): 8.00 µg/mL | MIC ([8]; in combination with NXL-104): 8.00 µg/mL | MIC ([9]; alone): 8.00 µg/mL | MIC ([9]; in combination with NXL-104): 2.00 µg/mL | MIC ([10]; alone): 0.12 µg/mL | MIC ([10]; in combination with NXL-104): 0.12 µg/mL | MIC ([11]; alone): >32 µg/mL | MIC ([11]; in combination with NXL-104): 16 µg/mL | MIC ([12]; alone): 16.00 µg/mL | MIC ([12]; in combination with NXL-104): 16.00 µg/mL | MIC ([13]; alone): 4.00 µg/mL | MIC ([13]; in combination with NXL-104): 1.00 µg/mL | MIC ([14]; alone): 16.00 µg/mL | MIC ([14]; in combination with NXL-104): 16.00 µg/mL | MIC ([15]; alone): 8.00 µg/mL | MIC ([15]; in combination with NXL-104): 2.00 µg/mL | MIC ([16]; alone): 4.00 µg/mL | MIC ([16]; in combination with NXL-104): 1.00 µg/mL | MIC ([17]; alone): 1.00 µg/mL | MIC ([17]; in combination with NXL-104): 0.25 µg/mL | MIC ([18]; alone): 0.12 µg/mL | MIC ([18]; in combination with NXL-104): 0.12 µg/mL | MIC ([19]; alone): 32.00 µg/mL | MIC ([19]; in combination with NXL-104): 32.00 µg/mL | MIC ([20]; alone): 8.00 µg/mL | MIC ([20]; in combination with NXL-104): 8.00 µg/mL | MIC ([21]; alone): 16.00 µg/mL | MIC ([21]; in combination with NXL-104): 4.00 µg/mL | MIC ([22]; alone): 4.00 µg/mL | MIC ([22]; in combination with NXL-104): 2.00 µg/mL | MIC ([23]; alone): 8.00 µg/mL | MIC ([23]; in combination with NXL-104): 8.00 µg/mL | MIC ([24]; alone): 0.12 µg/mL | MIC ([24]; in combination with NXL-104): 0.12 µg/mL
